Laboratory results from patent US20240252520A1 (priority 2023, published 2024).
“Also recorded” adds a separate entry of the source.

Tests used:
diabetic humanized mice = assay: Metrifonate hydrogel on diabetic humanized mice wounds; format: in vivo, mouse
Excerpt: These genes are well known to improve impaired diabetic wound healing, see Berry-Kilgour et al., Advancements in the Delivery of Growth Factors and Cytokines for the Treatment of Cutaneous Wound Indications; Adv Wound Care (New Rochelle) 2021; 10(11):596-622. Epub 20201125. doi:10/1089?wound.2020.1183. PubMed PMID:33086946: PMCID: PMC8392095.
To generate a humanized skin graft mice model, Foxn1nu nude male mice of 6 weeks old can be used as the recipient animals. These mice are devoid of T cells and suffer from a lack of cell-mediated immunity making them a model of choice for xenograft studies. […] Following the sustained diabetic state period, wounds are inflicted on the transplanted human skin with a 3 mm punch biopsy, treatment options include the best two Metrifonate-Hydrogel dressings, previously determined by the mice and pig studies for the preferred two doses. […] Wound healing can be monitored using standardized photography daily during the course of 3, 5 and 10 days. […]
To generate a humanized skin graft mice model, Foxn1nu nude male mice of 6 weeks old can be used as the recipient animals. […] Following the sustained diabetic state period, wounds are inflicted on the transplanted human skin with a 3 mm punch biopsy, treatment options include the best two Metrifonate-Hydrogel dressings, previously determined by the mice and pig studies for the preferred two doses. […]

[1] = system: THP-1 monocyte derived macrophages; assay: Nicotinic and muscarinic receptor gene expression, THP-1 monocyte derived macrophages; details: 48 hours
db/db mouse model [2] = assay: LD-Met gel in db/db mice, Day 5 and Day 10 wound analyses; format: in vivo; details: Day 5
fibroblasts [3] = assay: Alamar Blue assay of fibroblast metabolic activity; format: cell-based, human; details: over three days after treatment
Excerpt: (§1) This concentration was selected for all subsequent experiments (FIG. 24A).
Following the in silico prioritization of metrifonate as a key compound in promoting wound healing, we determined if addition of metrifonate influenced key cell functions in tissue cultures of cells that are implicated in wound healing, such as fibroblasts, keratinocytes and macrophages.
In a further example, an alamarBlue™ Assay can be used as follows: Human dermal fibroblasts (immortalized cell line, abm Cat. No. T0904) are cultured in complete medium (PriGrow III with 10% Fetal Bovine Serum, 100U/L penicillin, and 100 ug/L streptomycin) at 37° C. in 5% CO2. The cells are passaged every 7 days using 0.025% trypsin-ethylenediaminetetraacetic acid (Life Technologies) and plated at 10,000 cells per well in 96-well plates. […] Cell viability is determined by alarmarBlue™ (Invitrogen) after 48h, and 72h of incubation. Briefly, after 48 or 72h of incubation the media containing inhibitors is removed and replaced with 10% v/v alamarBlue™ in complete media and the plate is incubated at 37° C. for further 24 h. After this incubation period, plates are read at an excitation range of 540-570 nm and an emission range of 580-610 nm. All AchE inhibitors are expected to not negatively affect cell proliferation up to the concentration of 10 μg/ml.

[4] = target: T1, Acetylcholinesterase (AchE) (Mus musculus, UniProt P21836); assay: AchE activity in Day 5 mouse wound lysates; format: in vivo; details: Day 5, 2 days after bandage removal
T1 construct: measuring the levels of the enzyme on Day 5 in mouse wounds lysates; from tissue; host or cells: skin wound tissue lysate of db/db mice, Day 5 after wounding
T1 sequence (P21836 32-614): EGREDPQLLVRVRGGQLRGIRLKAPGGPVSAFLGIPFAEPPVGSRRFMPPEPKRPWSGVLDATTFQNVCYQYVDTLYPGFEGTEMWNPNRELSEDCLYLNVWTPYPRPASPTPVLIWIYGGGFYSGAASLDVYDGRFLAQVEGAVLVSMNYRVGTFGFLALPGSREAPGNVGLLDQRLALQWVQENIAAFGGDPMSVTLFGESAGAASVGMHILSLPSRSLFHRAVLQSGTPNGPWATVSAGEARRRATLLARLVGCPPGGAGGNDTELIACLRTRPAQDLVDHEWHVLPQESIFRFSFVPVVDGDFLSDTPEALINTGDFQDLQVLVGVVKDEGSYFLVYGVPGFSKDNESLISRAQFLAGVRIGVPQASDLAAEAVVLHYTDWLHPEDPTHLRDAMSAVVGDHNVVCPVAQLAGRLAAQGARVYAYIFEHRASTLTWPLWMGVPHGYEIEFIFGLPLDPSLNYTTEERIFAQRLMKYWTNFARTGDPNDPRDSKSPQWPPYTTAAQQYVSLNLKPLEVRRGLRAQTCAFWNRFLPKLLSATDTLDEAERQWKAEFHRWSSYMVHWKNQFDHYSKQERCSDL

fibroblasts [5] = assay: Nicotinic and muscarinic receptor gene expression, fibroblasts; details: 48 hours
acute porcine wounds = assay: Metrifonate eluting dressings on acute porcine wounds over 20 days
[6] = system: THP-1 derived macrophages; assay: Cytokine gene expression in THP-1 derived macrophages polarized to M0, M1, M2; format: cell-based, human
Excerpt: as §1

[7] = oral 30-60 mg daily up to 26 weeks; cited from earlier work
keratinocytes [8] = assay: Wound healing scratch assay of keratinocytes with metrifonate; format: cell-based; details: 10 μg/ml, after 24 hours
Protocol: as §1
Keratinocyte HaCaT cells (ATCC) are cultured in complete medium (Dulbecco's Modified Eagle Medium with 10% Fetal Bovine Serum, 100U/L penicillin, and 100 ug/L streptomycin) at 37° C. in 5% CO2. The cells are passaged every 5 days using 0.025% trypsin-ethylenediaminetetraacetic acid (Life Technologies) detachment and plated at 100,000 cells per well in 24-well plates. The cell monolayer is scratched in a straight line using a P200 pipette tip. […] Images are taken immediately after the scratch (0 h), in 6 h, 12 h, 24 h, 48 h, and 72 h for at least four wells per condition. Scratch areas are analyzed using ImageJ/FIJI. At least three independent experiments are performed. All AchE inhibitors are expected to promote faster wound coverage up to the concentration of 10 μg/ml.

keratinocytes [9] = assay: Nicotinic and muscarinic receptor gene expression, keratinocytes; details: 48 hours
diabetic db/db mice = assay: LNP-FGF2, LNP-IL-2, LNP-CHI3L1, LNP-IL-17A mRNA bandages in db/db mice (Example 15); format: in vivo, mouse
Protocol: Two 6-mm punch biopsy full-thickness wounds were created on the dorsum of 16-week-old diabetic db/db mice (FIG. 19A). Macroporous bandages loaded with 4 μg of LNP-FGF2, LNP-IL-2, LNP-CHI3L1, and LNP-IL-17A mRNA were topically applied on the wounds for 10 days. […] The wound size was measured every three days.

db/db mouse model [10] = assay: Receptor agonists and antagonists on db/db mouse wounds, day 5 sacrifice; details: 2 mg/kg topically daily with blk-gel; Chrm1, Chrm3 or α7nAChR agonist

## COP(=O)(OC)C(O)C(Cl)(Cl)Cl (stereo not shown) [metrifonate, (2,2,2-trichloro-1-hydroxyethyl) dimethylphosphonate]
Diabetic humanized mice; low dose hydrogel vs blank hydrogel, D0 to D7
  wound healing: improved wound healing
Diabetic humanized mice; upon sacrifice
  expression of Il10, Arg and human gene VEGFA (RT-qPCR): increased the expression
[1]; M0 cells
  receptor gene expression: activation of CHRM3 receptor; also recorded: up-regulation of CHRM3 receptor
[1]; M1 cells
  receptor gene expression: activation of CHRM4; also recorded: higher expression of CHRM4 and CHRNA3 receptors
db/db mouse model [2]
  total and degranulated mast cells (toluidine blue staining): enrichment of both total and degranulated mast cells
Fibroblasts [3]
  metrifonate concentration that began to negatively affect viability: over 10 μg/ml
[4]
  Acetylcholinesterase (AchE) activity in wounds: inhibits the activity of Acetylcholinesterase (AchE)
Fibroblasts [5]
  receptor gene expression: activation of CHRNA4; also recorded: increased expression of CHRNA4
Acute porcine wounds
  adverse effects: did not induce any adverse effects
  wound lengths in histological assessment: shorter wound lengths
[6]; M0 macrophages
  increase in IL10 gene expression: 30 fold
[6]; M1 cells
  downregulation of IL1b: 12 fold
  downregulation of TNF: 40 fold
[6]; M2 macrophages
  increase in IL10 gene expression: 10 fold
[7]
  clinical effect in mild-to-moderate Alzheimer's disease: beneficial effect
Keratinocytes [8]
  keratinocyte migration / scratch wound closure: significantly accelerate migration
Keratinocytes [9]
  receptor gene expression: up-regulation of CHRM3 and CHRNB4 receptors

## CHI3L1 protein: bandages loaded with CHI3L1 protein employed as additional control
Diabetic db/db mice; 4 μg bandage, D0 to D10
  wound healing during the whole period vs blank bandage (repeated measurement analysis): no differences in wound healing
Diabetic db/db mice; Day 10, compared with blank
  wound reduction on Day 10: similar

## LASSBIo0897
db/db mouse model [10]
  effect of agonist on wound healing: only the M1 agonist accelerated wound healing

## C[N+](C)(C)CC#CCOC(=O)Nc1cccc(Cl)c1.[Cl-] [McN-A 343]
db/db mouse model [10]
  effect of agonist on wound healing: promoted the wound healing; also recorded: accelerated wound healing

## O=C(N[C@H]1CN2CCC1CC2)c1ccc(Cl)cc1 [PNU-282987]
db/db mouse model [10]
  effect of agonist on wound healing: only the M1 agonist accelerated wound healing
